US11590116B2 (THERAVANCE BIOPHARMA R&D IP, LLC, priority 2019, dated 2023)

Legend:
[1] = molecular target: T1, recombinant human ALK5 (TGF-βR1) protein (Homo sapiens, UniProt P36897); test: Biochemical ALK5 (TGF-βR1) assay to measure pKi (LANCE Ultra ULight kinase assay); conditions: apparent pKi from pIC50 by Cheng-Prusoff, read-out: ALK5 pKi (converted)
T1 construct: purchased Life Technologies PR9075A
T1 sequence (P36897 34-503): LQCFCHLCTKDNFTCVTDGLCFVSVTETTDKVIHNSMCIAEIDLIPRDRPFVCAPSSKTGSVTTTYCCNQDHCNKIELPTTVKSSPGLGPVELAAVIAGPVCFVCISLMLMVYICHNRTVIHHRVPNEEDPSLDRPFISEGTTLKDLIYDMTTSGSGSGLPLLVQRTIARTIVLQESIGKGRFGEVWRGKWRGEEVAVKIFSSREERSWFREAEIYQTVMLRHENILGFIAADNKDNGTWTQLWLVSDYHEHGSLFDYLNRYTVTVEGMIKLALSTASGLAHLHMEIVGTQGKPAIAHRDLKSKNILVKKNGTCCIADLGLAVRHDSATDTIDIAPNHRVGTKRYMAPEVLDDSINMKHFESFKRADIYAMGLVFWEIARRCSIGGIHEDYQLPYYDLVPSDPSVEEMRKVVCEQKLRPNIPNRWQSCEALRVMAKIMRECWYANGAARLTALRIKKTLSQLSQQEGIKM
How it was run: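 Compounds (10 μM to 25 pM) preincubated 60 minutes at room temperature with enzyme, then reaction run 60 minutes at 37° C with ATP added as 125 μM (5× final). Stopped with EDTA plus Eu-anti-phospho-Topoisomerase 2-alpha (Thr1342) antibody, TR-FRET read at 665 nm; pIC50 converted to pKi via Cheng-Prusoff.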

[2] = tested on: TGF-β-stimulated SMAD3 phosphorylation in BEAS-2B cells; test: Cellular ALK5 potency assay, inhibition of TGF-β stimulated pSMAD3 formation in BEAS-2B cells; format: cell-based; conditions: Homo sapiens; inhibition of TGF-β stimulated pSMAD3 formation, BEAS-2B cells; read-out: BEAS2B pIC50 (converted)
How it was run: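 Potency is reported as pIC50, derived from concentration-dependent reduction of pSMAD3 AlphaLISA signal against TGF-β-stimulated cells without compound. BEAS-2B cells received compound for 1 h before a 30-min stimulation with 10 ng/mL TGF-β.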

Structure (SMILES) | Ki [1] | IC50 [2]
Cc1cccc(-c2[nH]cnc2-c2ccc3ncc(-c4cccc5c4CNCC5)cc3c2)n1 [Compound 493, 6-[5-(6-methyl-2-pyridyl)-1H-imidazol-4-yl]-3-(1,2,3,4-tetrahydroisoquinolin-8-yl)quinoline] | 3.98 to 31.6 nM | 200 to 1260 nM
CNCCn1ccc(-c2cnc3ccc(-c4nc[nH]c4-c4cccc(C)n4)cc3c2)n1 [Compound 494, N-methyl-2-[3-[6-[5-(6-methyl-2-pyridyl)-1H-imidazol-4-yl]-3-quinolyl]pyrazol-1-yl]ethanamine] | 0.0398 to 0.316 nM | 25.1 to 158 nM
Cc1cccc(-c2[nH]cnc2-c2ccc3ncc(NCCC4CCNCC4)cc3c2)n1 [Compound 496, 6-[5-(6-methyl-2-pyridyl)-1H-imidazol-4-yl]-N-[2-(4-piperidyl)ethyl]quinolin-3-amine] | 0.0398 to 0.316 nM | 25.1 to 158 nM
CNCCn1cc(-c2cnc3ccc(-c4c(-c5cccc(C)n5)nnn4Cc4ccccc4)cc3c2)cn1 [Compound 498, 2-[4-[6-[3-benzyl-5-(6-methyl-2-pyridyl)triazol-4-yl]-3-quinolyl]pyrazol-1-yl]-N-methyl-ethanamine] | 0.0398 to 0.316 nM | 25.1 to 158 nM
Cc1cccc(-c2[nH]cnc2-c2ccc3ncc(N4CCNC(CC(=O)O)C4)cc3c2)n1 (centres unmarked) [Compound 500, 2-(4-(6-(5-(6-methylpyridin-2-yl)-1H-imidazol-4-yl)quinolin-3-yl)piperazin-2-yl)acetic acid] | 0.0398 to 0.316 nM | 1580 to 10000 nM
CNC1CCN(c2cnc3ccc(-c4c(-c5cccc(C)n5)nc5ccccn45)nc3c2)CC1 [Compound 501, N-methyl-1-[6-[2-(6-methyl-2-pyridyl)imidazo[1,2-a]pyridin-3-yl]-1,5-naphthyridin-3-yl]piperidin-4-amine] | 0.0398 to 0.316 nM | 25.1 to 158 nM
Cc1nc(-c2n[nH]cc2-c2ccc3ncc(-c4c(C)nn5c4NCCC5)cc3n2)ccc1F [Compound 504, 2-[3-(5-fluoro-6-methyl-2-pyridyl)-1H-pyrazol-4-yl]-7-(2-methyl-4,5,6,7-tetrahydropyrazolo[1,5-a]pyrimidin-3-yl)-1,5-naphthyridine] | 0.398 to 3.16 nM | 25.1 to 158 nM
Cc1nc(-c2n[nH]cc2-c2ccc3ncc(N4CCN(CCO)CC4)cc3n2)ccc1F [Compound 509, 2-[4-[6-[3-(5-fluoro-6-methyl-2-pyridyl)-1H-pyrazol-4-yl]-1,5-naphthyridin-3-yl]piperazin-1-yl]ethanol] | < 0.0316 nM | 25.1 to 158 nM
Cc1cccc(-c2[nH]cnc2-c2ccc3ncc(Nc4ccc(N5CCN(Cc6ccccc6)CC5)cn4)cc3c2)n1 [Compound 510, N-[5-(4-benzylpiperazin-1-yl)-2-pyridyl]-6-[5-(6-methyl-2-pyridyl)-1H-imidazol-4-yl]quinolin-3-amine] | 0.398 to 3.16 nM | 25.1 to 158 nM
Cc1nc(-c2n[nH]cc2-c2ccc3ncc(N4CCC(N(C)C)CC4)cc3n2)ccc1F [Compound 514, 1-[6-[3-(5-fluoro-6-methyl-2-pyridyl)-1H-pyrazol-4-yl]-1,5-naphthyridin-3-yl]-N,N-dimethyl-piperidin-4-amine] | 0.0398 to 0.316 nM | 25.1 to 158 nM
Cc1nc(-c2n[nH]cc2-c2ccc3ncc(-c4[nH]nc5c4CCN5)cc3n2)ccc1F [Compound 515, 2-[3-(5-fluoro-6-methyl-2-pyridyl)-1H-pyrazol-4-yl]-7-(2,4,5,6-tetrahydropyrrolo[2,3-c]pyrazol-3-yl)-1,5-naphthyridine] | < 0.0316 nM | 25.1 to 158 nM
Cc1nc(-c2n[nH]cc2-c2ccc3ncc(-c4cnn(C[C@H]5C[C@@H](N)C5)c4)cc3n2)ccc1F [Compound 517, 3-[[4-[6-[3-(5-fluoro-6-methyl-2-pyridyl)-1H-pyrazol-4-yl]-1,5-naphthyridin-3-yl]pyrazol-1-yl]methyl]cyclobutanamine] | 0.0398 to 0.316 nM | 25.1 to 158 nM
Cc1cccc(-c2[nH]cnc2-c2ccc3ncc(Nc4ccc(N5CCNCC5)cn4)cc3c2)n1 [Compound 519, 6-[5-(6-methyl-2-pyridyl)-1H-imidazol-4-yl]-N-(5-piperazin-1-yl-2-pyridyl)quinolin-3-amine] | 0.0398 to 0.316 nM | 200 to 1260 nM
Cc1nc(-c2n[nH]cc2-c2ccc3ncc(-c4nnn5c4NCC5)cc3n2)ccc1F [Compound 520, 7-(5,6-dihydro-4H-imidazo[1,2-c]triazol-3-yl)-2-[3-(5-fluoro-6-methyl-2-pyridyl)-1H-pyrazol-4-yl]-1,5-naphthyridine] | < 0.0316 nM | 25.1 to 158 nM
Cc1cccc(-c2[nH]cnc2-c2ccc3ncc(-c4cccc(C(=O)O[C@H]5CCN(C)C5)c4)cc3c2)n1 [Compound 522, [(3S)-1-methylpyrrolidin-3-yl] 3-[6-[5-(6-methyl-2-pyridyl)-1H-imidazol-4-yl]-3-quinolyl]benzoate] | 0.0398 to 0.316 nM | 25.1 to 158 nM

Now from value to molecule, other results behind:

Ki [1] | Structure (SMILES) | IC50 [2]
0.0398 to 0.316 nM | Cc1cccc(-c2n[nH]cc2-c2ccc3ncc(N4CCC[C@H](N(C)C)C4)cc3n2)n1 [Compound 492, (3S)-N,N-dimethyl-1-[6-[3-(6-methyl-2-pyridyl)-1H-pyrazol-4-yl]-1,5-naphthyridin-3-yl]piperidin-3-amine] | 25.1 to 158 nM
3.98 to 31.6 nM | Cc1cccc(-c2n[nH]cc2-c2ccc3ncc(CN4CC(N5CCOCC5)C4)cc3n2)n1 [Compound 495, 4-[1-[[6-[3-(6-methyl-2-pyridyl)-1H-pyrazol-4-yl]-1,5-naphthyridin-3-yl]methyl]azetidin-3-yl]morpholine] | 200 to 1260 nM
0.0398 to 0.316 nM | CCOC(=O)CCc1cnc2ccc(-c3c[nH]nc3-c3cccc(C)n3)nc2c1 [Compound 499, ethyl 3-[6-[3-(6-methyl-2-pyridyl)-1H-pyrazol-4-yl]-1,5-naphthyridin-3-yl]propanoate] | 25.1 to 158 nM
< 0.0316 nM | Cc1cccc(-c2n[nH]cc2-c2ccc3ncc(C4=CCC(NCc5ccccc5)CC4)cc3n2)n1 (centres unmarked) [Compound 502, N-benzyl-4-[6-[3-(6-methyl-2-pyridyl)-1H-pyrazol-4-yl]-1,5-naphthyridin-3-yl]cyclohex-3-en-1-amine] | 25.1 to 158 nM
0.0398 to 0.316 nM | Cc1cccc(-c2n[nH]cc2-c2ccc3ncc(N(C)CCCN4CCOCC4)cc3n2)n1 [Compound 506, N-methyl-6-[3-(6-methyl-2-pyridyl)-1H-pyrazol-4-yl]-N-(3-morpholinopropyl)-1,5-naphthyridin-3-amine] | 25.1 to 158 nM
0.398 to 3.16 nM | CNc1cnc2ccc(-c3c(-c4cccc(C)n4)n[nH]c3OC)nc2c1 [Compound 507, 6-[5-methoxy-3-(6-methyl-2-pyridyl)-1H-pyrazol-4-yl]-N-methyl-1,5-naphthyridin-3-amine] | 200 to 1260 nM
0.0398 to 0.316 nM | CCN1CCN(CCNc2cnc3ccc(-c4c[nH]nc4-c4cccc(C)n4)nc3c2)CC1 [Compound 508, N-[2-(4-ethylpiperazin-1-yl)ethyl]-6-[3-(6-methyl-2-pyridyl)-1H-pyrazol-4-yl]-1,5-naphthyridin-3-amine] | 25.1 to 158 nM
0.398 to 3.16 nM | Cc1cccc(-c2nc3sccn3c2-c2ccc3ncc(Br)cc3n2)n1 [Compound 511, 5-(7-Bromo-1,5-naphthyridin-2-yl)-6-(6-methylpyridin-2-yl)imidazo[2,1-b]thiazole] | 25.1 to 158 nM
0.0398 to 0.316 nM | CNCCn1cc(-c2cnc3ccc(-c4c(-c5cccc(C)n5)n[nH]c4N)nc3c2)cn1 [Compound 512, 4-[7-[1-[2-(methylamino)ethyl]pyrazol-4-yl]-1,5-naphthyridin-2-yl]-3-(6-methyl-2-pyridyl)-1H-pyrazol-5-amine] | 200 to 1260 nM
0.0398 to 0.316 nM | Cc1cccc(-c2n[nH]cc2-c2ccc3ncc(NCCN4C[C@@H](C)N[C@@H](C)C4)cc3n2)n1 [Compound 516, 6-[3-(6-methyl-2-pyridyl)-1H-pyrazol-4-yl]-N-[2-[rac-(3R,5S)-3,5-dimethylpiperazin-1-yl]ethyl]-1,5-naphthyridin-3-amine] | 25.1 to 158 nM
0.0398 to 0.316 nM | Cc1cccc(-c2n[nH]cc2-c2ccc3ncc(-c4ccccn4)cc3n2)n1 [Compound 518, 2-[3-(6-methyl-2-pyridyl)-1H-pyrazol-4-yl]-7-(2-pyridyl)-1,5-naphthyridine] | < 20 nM
0.398 to 3.16 nM | Cc1cccc(-c2[nH]nnc2-c2ccc3ncc(-c4c[nH]nc4C(F)(F)F)cc3n2)n1 [Compound 521, 2-[5-(6-methyl-2-pyridyl)-1H-triazol-4-yl]-7-[3-(trifluoromethyl)-1H-pyrazol-4-yl]-1,5-naphthyridine] | 25.1 to 158 nM
0.0398 to 0.316 nM | Cc1cccc(-c2[nH]ncc2-c2ccc3ncc(C(=O)OC4CCN(C)C4)cc3n2)n1 (centres unmarked) [Compound 523, (1-methylpyrrolidin-3-yl) 6-[5-(6-methyl-2-pyridyl)-1H-pyrazol-4-yl]-1,5-naphthyridine-3-carboxylate] | 25.1 to 158 nM
